Test results from US8946265B2, “Process for the preparation of lenalidomide” (Generics [UK] Limited, priority 2009, dated 2015).
Where two headings read alike, the source gives them in different places.

Experiments:
[1] = Thermodynamic stability and interconversion of polymorphs; format: physicochemical
[2] = Hygroscopicity of the crystalline form; format: physicochemical; conditions: solid crystalline form

polymorphic conversion under heating ([1]; conditions of heating) | hygroscopicity [2] | polymorphic conversion in aqueous solvent systems ([1]; aqueous solvent systems) | thermodynamic stability relative to other polymorphs ([1]; listed as form A) | Compound | thermodynamic stability relative to other polymorphs [1]
convert to form A | – | – | – | Nc1cccc2c1CN(C1CCC(=O)NC1=O)C2=O (centres unmarked) [form B, 3-(4-amino-1-oxo-1,3-dihydro-isoindol-2-yl)-piperidine-2,6-dione] | –
– | non-hygroscopic | convert to form B | most thermodynamically stable form | Nc1cccc2c1CN(C1CCC(=O)NC1=O)C2=O (centres unmarked) [lenalidomide crystalline form A, 3-(4-amino-1-oxo-1,3-dihydro-isoindol-2-yl)-piperidine-2,6-dione] | most thermodynamically stable anhydrous polymorph
